Measurements taken from US6916906B1, “Polypeptides implicated in the expression of resistance to glycopeptides, in particular in gram-positive bacteria, nucleotide sequence coding for these polypeptides and use for diagnosis” (priority 1990, dated 2005).

Tests used:
E. faecalis JH2-2 = assay: MIC after inactivation of vanS by insertion in plasmid pAT80; type: cell-based, Enterococcus faecalis; details: inactivation of vanS in pAT80, compared with pAT80
Description: The restriction fragments of pIP816 (Tra^−, Mob^+, Vm^r) were cloned in derivatives of the vector pAT29 which constitutes a shuttle vector between the Gram-positive and Gram-negative bacteria (oriR pAMβ1, oriR pUC, oriT RK2, spc, lacZ) (Trieu-Cuot et al., 1990, Nucleic Acids Res. 18:4296). This vector was constructed by the inventors and used to transform the strain E. coli JM103 ((lac-proAB), supE, thi, strA, sbcB15, endA, hspR4, F traD36, proAB, LacI^q, lacZ M15) (Messing et al., 1983, Methods Ezymol. 101:20-78). The plasmid DNA was prepared by an alkaline lysis protocol on a small scale (Sambrook et al., 1982, Molecular cloning, a laboratory manual. Cold Spring Harbor Laboratory, Cold Spring Harbor N.Y.) and introduced by electroporation (Cruz-Rodz A. L. et al., 1990, Mol. Gen. Genet. 224: 152-154) in E. faecalis JH2-2 (Fus^R, Rif^R) (Jacob A. E. et al., 1974, J. Bacteriol. 117: 360-372), by using a Gene Pulser apparatus (Bio-Rad Laboratories, Richmond, Calif.). The restriction profiles of the purified plasmids from E. faecalis and E. coli were compared in order to detect possible rearrangements of DNA.
The cultures were grown in brain-heart broth (BHI—Brain Heart Infusion Broth) or on agar at 37° C. […]

[1] = tested on: strain with a high level of resistance, in particular Gram-positive cocci; assay: MIC towards strains with a high level of resistance; type: cell-based
[2] = tested on: strains with low-level resistance; assay: MIC towards strains with low-level resistance; type: cell-based
E. gallinarum BM4174 = assay: Minimal inhibitory concentration of vancomycin for BM4174; type: cell-based; details: Enterococcus gallinarum, read-out: minimal inhibitory concentration
Method: (§1) The cultures were grown in brain-heart broth (BHI—Brain Heart Infusion Broth) or on agar at 37° C. The method of Steers et al (Antibiot. Chemother. Basel. 9: 307-311) was used to determine the minimal inhibitory concentrations (MICs) of the antibiotics on a Mueller-Hinton gelose agar medium.
(§2) In order to evaluate the contribution of vanC to resistance to vancomycin in E. gallinarum BM4174, the vanC gene was inactivated by insertion. […] The resulting pAT217 plasmid was introduced into BM4174 by electroporation (Cruz-Rodz et al., 1990, Mol. Gen. Genet. 224:152-154) and the clones supposed to result from a homologous recombination leading to the integration of pAT217 into vanC were selected on erythromycin. The clone BM4175 was compared with BM4174 by Southern hybridization using the probe C and aphA-3 specific for pAT114. The two probes hybridized with the EcoRI fragment of 8.6 kb from BM4175.

BM4175 = assay: Minimal inhibitory concentration of vancomycin for BM4175 (vanC inactivated by insertion); type: cell-based; details: Enterococcus gallinarum; BM4175, pAT217 integrated into vanC
Method: as §1, §2

In the case of O=C(N[C@H](CO)[C@H](O)c1ccc([N+](=O)[O-])cc1)C(Cl)Cl [chloramphenicol], the “change of minimal inhibitory concentration (MIC)” value (E. faecalis JH2-2) is reported as “two-fold reduction”.

teicoplanin was tested, and the “minimal inhibitory concentrations (MIC)” value ([1]; strains with a high level of resistance (definition)) was over 8 µg/mL and the “sensitivity of the strains” value [2] was “apparently sensitive”.

Work on CN[C@H](CC(C)C)C(=O)N[C@H]1C(=O)N[C@@H](CC(N)=O)C(=O)N[C@H]2C(=O)N[C@H]3C(=O)N[C@H](C(=O)N[C@H](C(=O)O)c4cc(O)cc(O)c4-c4cc3ccc4O)[C@H](O)c3ccc(c(Cl)c3)Oc3cc2cc(c3O[C@@H]2O[C@H](CO)[C@@H](O)[C@H](O)[C@H]2O[C@H]2C[C@](C)(N)[C@H](O)[C@H](C)O2)Oc2ccc(cc2Cl)[C@H]1O [vancomycin] yielded an MIC (E. gallinarum BM4174) of 16 µg/mL, an MIC (BM4175) of 2 µg/mL and an MIC ([1]; read-out: minimal inhibitory concentrations (MIC)) of over 32 µg/mL. For the same molecule, the “change of minimal inhibitory concentration (MIC)” value (E. faecalis JH2-2) was “remains unchanged”.
